Test results: the NIST ThermoML archive (doi:10.1021/je049612f)

Conditions: Gas, Vibrating wire viscometry

FS(F)(F)(F)(F)F [sulfur hexafluoride]
Conditions | viscosity [mPa·s]
321 K, 1893.8 kPa | 0.01729
321 K, 1930.7 kPa | 0.01734
321 K, 2004.9 kPa | 0.01743
321 K, 2041.9 kPa | 0.01747
321 K, 2120.4 kPa | 0.01758
321 K, 2221.3 kPa | 0.01772
321 K, 2270.3 kPa | 0.0178
321 K, 2332.7 kPa | 0.0179
321 K, 2373.2 kPa | 0.01797
321 K, 2451.3 kPa | 0.01812
321 K, 2534.7 kPa | 0.01826
321 K, 2581.9 kPa | 0.01837
321 K, 2629.5 kPa | 0.01846
321 K, 2688.1 kPa | 0.0186
321 K, 2803.9 kPa | 0.01888
321 K, 2873.5 kPa | 0.01908
321 K, 2959.1 kPa | 0.01932
321 K, 3050 kPa | 0.01963
321 K, 3136.6 kPa | 0.01995
321 K, 3229.6 kPa | 0.02035
321 K, 3282 kPa | 0.0206
321 K, 3384.4 kPa | 0.02117
321 K, 3445.9 kPa | 0.02156
321 K, 3498.8 kPa | 0.02195
321 K, 3558.3 kPa | 0.02244
321 K, 3606.1 kPa | 0.02294
321 K, 3651.4 kPa | 0.02346
321 K, 3695.6 kPa | 0.02407
321 K, 3729.2 kPa | 0.02462
321 K, 3765.4 kPa | 0.0253
321 K, 3793.6 kPa | 0.026
321 K, 3819.6 kPa | 0.02674
321 K, 3858.5 kPa | 0.02827
321 K, 3887.8 kPa | 0.0299
321 K, 3899.4 kPa | 0.03104
321 K, 3910.1 kPa | 0.03218
321 K, 3918.4 kPa | 0.03355
321 K, 3926.6 kPa | 0.03481
321 K, 3933.3 kPa | 0.03615
321 K, 3938.4 kPa | 0.03743
321 K, 3945.7 kPa | 0.03995
321 K, 3950.6 kPa | 0.04131
321 K, 3955.4 kPa | 0.04272
321 K, 3961 kPa | 0.04435
321 K, 3968.8 kPa | 0.04638
321 K, 3977 kPa | 0.04813
321 K, 3988.3 kPa | 0.05018
321 K, 4001.1 kPa | 0.05214
321 K, 4020.8 kPa | 0.05448
321 K, 4046.8 kPa | 0.05683
321 K, 4077.1 kPa | 0.05902
321 K, 4112.9 kPa | 0.06125
321 K, 4160 kPa | 0.0635
321 K, 4223.8 kPa | 0.06599
321 K, 4349.4 kPa | 0.07
321 K, 4465.5 kPa | 0.07305
321 K, 4601.3 kPa | 0.07606
321 K, 4740.5 kPa | 0.07859
321 K, 4879.1 kPa | 0.08093
321 K, 5134 kPa | 0.08474
321 K, 5554.1 kPa | 0.09001
321 K, 5938 kPa | 0.09416
321 K, 6388.7 kPa | 0.09845
321 K, 7256.2 kPa | 0.1057
321 K, 7905.1 kPa | 0.1105
321 K, 8647.5 kPa | 0.1154
321 K, 9548.1 kPa | 0.1212
321 K, 10352 kPa | 0.1258
321 K, 11075 kPa | 0.1297
333.15 K, 91.55 kPa | 0.01681
333.15 K, 113.58 kPa | 0.01682
333.15 K, 142.52 kPa | 0.01682
333.15 K, 172.42 kPa | 0.01683
333.15 K, 198.48 kPa | 0.01684
333.15 K, 218.78 kPa | 0.01685
333.15 K, 243.22 kPa | 0.01685
333.15 K, 275.2 kPa | 0.01686
333.15 K, 294.03 kPa | 0.01686
333.15 K, 319.41 kPa | 0.01687
333.15 K, 350.89 kPa | 0.01688
333.15 K, 378.94 kPa | 0.01689
333.15 K, 416.93 kPa | 0.0169
333.15 K, 443.4 kPa | 0.01691
333.15 K, 479.64 kPa | 0.01692
